Test results reported in PubChem BioAssay AID192 (DTP/NCI, 2004).
Several values for one entry are separate records, joined by “and”; a condition that tells them apart may be missing. Equal entries are not always repeated. Inconclusive results and toxic doses are left out.

Test system: BDF1 mice, B16 melanoma ip, median survival T/C
Experiment: NCI In Vivo Anticancer Drug Screen. Data for tumor model B16 Melanoma (intraperitoneal) in B6D2F1 (BDF1) mice
Conditions: endpoint: median survival time, higher = longer survival
How it was run: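 Tumor-bearing mice received test compound or vehicle. Survival or tumor size was then measured in both groups. The treated-group figure was divided by the control-group figure.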

CC1=C(C)C(=O)O[C@@H]([C@](C)(O)[C@]2(O)CC[C@@]3(O)[C@@H]4C[C@H]5O[C@]56[C@@H](O)C=CC(=O)[C@]6(C)[C@H]4CC[C@]23C)C1
T/C (dose: 2.0 mg/kg/injection, schedule: Q01DX005 (ip), vehicle: saline + alcohol): 117 % of control
T/C (dose: 2.0 mg/kg/injection, schedule: Q01DX005 (iv), vehicle: saline + alcohol): 99 % of control
T/C (dose: 4.0 mg/kg/injection, schedule: Q01DX001 (ip), vehicle: saline + alcohol): 113 % of control
T/C (dose: 4.0 mg/kg/injection, schedule: Q01DX001 (iv), vehicle: saline + alcohol): 103 % of control
T/C (dose: 4.0 mg/kg/injection, schedule: Q01DX005 (iv), vehicle: saline + alcohol): 97 % of control
T/C (dose: 4.0 mg/kg/injection, schedule: Q01DX005 (oral), vehicle: saline + alcohol): 103 % of control
T/C (dose: 4.0 mg/kg/injection, schedule: Q01DX009 (oral), vehicle: saline + alcohol): 90 % of control
T/C (dose: 8.0 mg/kg/injection, schedule: Q01DX001 (ip), vehicle: saline + alcohol): 113 % of control
T/C (dose: 8.0 mg/kg/injection, schedule: Q01DX001 (iv), vehicle: saline + alcohol): 114 % of control
T/C (dose: 8.0 mg/kg/injection, schedule: Q01DX001 (oral), vehicle: saline + alcohol): 97 % of control
T/C (dose: 8.0 mg/kg/injection, schedule: Q01DX005 (iv), vehicle: saline + alcohol): 95 % of control
T/C (dose: 8.0 mg/kg/injection, schedule: Q01DX005 (oral), vehicle: saline + alcohol): 103 % of control
T/C (dose: 8.0 mg/kg/injection, schedule: Q01DX009 (oral), vehicle: saline + alcohol): 95 % of control
T/C (dose: 16.0 mg/kg/injection, schedule: Q01DX001 (iv), vehicle: saline + alcohol): 92 % of control
T/C (dose: 16.0 mg/kg/injection, schedule: Q01DX001 (oral), vehicle: saline + alcohol): 99 % of control
T/C (dose: 16.0 mg/kg/injection, schedule: Q01DX005 (ip), vehicle: saline + alcohol): 116 % of control
T/C (dose: 16.0 mg/kg/injection, schedule: Q01DX005 (iv), vehicle: saline + alcohol): 92 % of control
T/C (dose: 16.0 mg/kg/injection, schedule: Q01DX005 (oral), vehicle: saline + alcohol): 104 % of control
T/C (dose: 16.0 mg/kg/injection, schedule: Q01DX009 (oral), vehicle: saline + alcohol): 94 % of control
T/C (dose: 32.0 mg/kg/injection, schedule: Q01DX001 (ip), vehicle: saline + alcohol): 116 % of control
T/C (dose: 32.0 mg/kg/injection, schedule: Q01DX001 (iv), vehicle: saline + alcohol): 101 % of control
T/C (dose: 32.0 mg/kg/injection, schedule: Q01DX001 (oral), vehicle: saline + alcohol): 103 % of control
T/C (dose: 32.0 mg/kg/injection, schedule: Q01DX005 (iv), vehicle: saline + alcohol): 99 % of control
T/C (dose: 32.0 mg/kg/injection, schedule: Q01DX005 (oral), vehicle: saline + alcohol): 90 % of control
T/C (dose: 32.0 mg/kg/injection, schedule: Q01DX009 (oral), vehicle: saline + alcohol): 104 % of control
T/C (dose: 64.0 mg/kg/injection, schedule: Q01DX001 (iv), vehicle: saline + alcohol): 105 % of control
T/C (dose: 64.0 mg/kg/injection, schedule: Q01DX001 (oral), vehicle: saline + alcohol): 101 % of control
T/C (dose: 64.0 mg/kg/injection, schedule: Q01DX005 (oral), vehicle: saline + alcohol): 97 % of control
T/C (dose: 64.0 mg/kg/injection, schedule: Q01DX009 (oral), vehicle: saline + alcohol): 101 % of control
T/C (dose: 128.0 mg/kg/injection, schedule: Q01DX001 (oral), vehicle: saline + alcohol): 105 % of control

[N-]=[N+]=CC(=O)CCC(=O)C=[N+]=[N-]
T/C (dose: 0.18 mg/kg/injection, schedule: Q01DX009 (ip), vehicle: other): 92 % of control
T/C (dose: 0.37 mg/kg/injection, schedule: Q01DX009 (ip), vehicle: other): 96 % of control
T/C (dose: 0.39 mg/kg/injection, schedule: Q01DX009 (ip), vehicle: other): 123 % of control
T/C (dose: 0.75 mg/kg/injection, schedule: Q01DX009 (ip), vehicle: other): 92 % of control
T/C (dose: 1.5 mg/kg/injection, schedule: Q01DX009 (ip), vehicle: other): 104 % of control
T/C (dose: 1.56 mg/kg/injection, schedule: Q01DX009 (ip), vehicle: other): 101 % of control and 117 % of control

C[C@@H]1C[C@H]2[C@@H]3CCC4=CC(=O)C=C[C@]4(C)[C@@]3(F)[C@@H](O)C[C@]2(C)[C@@]1(O)C(=O)CO
T/C (dose: 3.12 mg/kg/injection, schedule: Q01DX009 (ip), vehicle: Klucel (hydroxypropylcellulose) (HPC)): 114 % of control
T/C (dose: 6.25 mg/kg/injection, schedule: Q01DX009 (ip), vehicle: Klucel (hydroxypropylcellulose) (HPC)): 107 % of control
T/C (dose: 12.5 mg/kg/injection, schedule: Q01DX009 (ip), vehicle: Klucel (hydroxypropylcellulose) (HPC)): 114 % of control
T/C (dose: 25.0 mg/kg/injection, schedule: Q01DX009 (ip), vehicle: Klucel (hydroxypropylcellulose) (HPC)): 107 % of control
T/C (dose: 50.0 mg/kg/injection, schedule: Q01DX009 (ip), vehicle: Klucel (hydroxypropylcellulose) (HPC)): 115 % of control

FC(F)(F)c1ccc2c(c1)N(CCCN1CCN(CCOCCCl)CC1)c1ccccc1S2
T/C (dose: 0.39 mg/kg/injection, schedule: Q01DX009 (ip), vehicle: saline): 123 % of control
T/C (dose: 0.78 mg/kg/injection, schedule: Q01DX009 (ip), vehicle: saline): 115 % of control
T/C (dose: 1.56 mg/kg/injection, schedule: Q01DX009 (ip), vehicle: saline): 110 % of control
T/C (dose: 2.34 mg/kg/injection, schedule: Q04DX003 (ip), vehicle: saline): 92 % of control
T/C (dose: 4.68 mg/kg/injection, schedule: Q04DX003 (ip), vehicle: saline): 86 % of control

CC(Cc1ccc2c(c1)OCO2)C(C)Cc1ccc2c(c1)OCO2 (centres undefined)
T/C (dose: 100.0 mg/kg/injection, schedule: Q01DX009 (ip), vehicle: other): 94 % of control
T/C (dose: 200.0 mg/kg/injection, schedule: Q01DX009 (ip), vehicle: other): 89 % of control
T/C (dose: 400.0 mg/kg/injection, schedule: Q01DX009 (ip), vehicle: other): 89 % of control

CCOC(=O)C(=O)CC(=O)/C=C/c1ccccc1
T/C (dose: 50.0 mg/kg/injection, schedule: Q01DX009 (ip), vehicle: saline with Tween-80): 94 % of control
T/C (dose: 100.0 mg/kg/injection, schedule: Q01DX009 (ip), vehicle: saline with Tween-80): 97 % of control
T/C (dose: 200.0 mg/kg/injection, schedule: Q01DX009 (ip), vehicle: saline with Tween-80): 97 % of control

COc1ccc(S(=O)O)cc1NC(C)=O
T/C (dose: 100.0 mg/kg/injection, schedule: Q04DX003 (ip), vehicle: Klucel (hydroxypropylcellulose) (HPC)): 95 % of control

COc1cccc2c1C(=O)c1c(O)c3c(c(O)c1C2=O)C[C@@](O)(/C(C)=N/NC(=O)c1ccccc1)C[C@@H]3OC1CC(N)C(O)C(C)O1 (some centres undefined)
T/C (dose: 0.5 mg/kg/injection, schedule: Q01DX009 (ip), vehicle: water): 118 % of control
T/C (dose: 0.75 mg/kg/injection, schedule: Q01DX009 (ip), vehicle: saline): 156 % of control
T/C (dose: 1.5 mg/kg/injection, schedule: Q01DX009 (ip), vehicle: saline): 156 % of control and 167 % of control and 202 % of control
T/C (dose: 2.0 mg/kg/injection, schedule: Q01DX001 (ip), vehicle: water): 158 % of control and 165 % of control
T/C (dose: 2.0 mg/kg/injection, schedule: Q01DX009 (ip), vehicle: water): 181 % of control
T/C (dose: 3.0 mg/kg/injection, schedule: Q01DX009 (ip), vehicle: saline): 186 % of control and 200 % of control and 226 % of control
T/C (dose: 3.0 mg/kg/injection, schedule: Q04DX003 (ip), vehicle: saline): 165 % of control and 172 % of control
T/C (dose: 4.0 mg/kg/injection, schedule: Q01DX001 (ip), vehicle: water): 161 % of control and 162 % of control and 202 % of control
T/C (dose: 4.0 mg/kg/injection, schedule: Q01DX009 (ip), vehicle: water): 172 % of control
T/C (dose: 6.0 mg/kg/injection, schedule: Q01DX009 (ip), vehicle: saline): 191 % of control and 202 % of control and 272 % of control
T/C (dose: 6.0 mg/kg/injection, schedule: Q04DX003 (ip), vehicle: saline): 161 % of control and 193 % of control and 260 % of control
T/C (dose: 8.0 mg/kg/injection, schedule: Q01DX001 (ip), vehicle: water): 186 % of control and 211 % of control and 275 % of control
T/C (dose: 8.0 mg/kg/injection, schedule: Q01DX009 (ip), vehicle: water): 245 % of control
T/C (dose: 12.0 mg/kg/injection, schedule: Q04DX003 (ip), vehicle: saline): 155 % of control and 215 % of control and 260 % of control
T/C (dose: 16.0 mg/kg/injection, schedule: Q01DX001 (ip), vehicle: water): 178 % of control and 282 % of control and 287 % of control

CC(=O)CC(=O)Nc1ncccc1C
T/C (dose: 25.0 mg/kg/injection, schedule: Q01DX009 (ip), vehicle: carboxymethylcellulose (CMC)): 111 % of control
T/C (dose: 50.0 mg/kg/injection, schedule: Q01DX009 (ip), vehicle: carboxymethylcellulose (CMC)): 106 % of control
T/C (dose: 100.0 mg/kg/injection, schedule: Q01DX009 (ip), vehicle: carboxymethylcellulose (CMC)): 107 % of control

CCCCCCCCC(=O)CCCCCC
T/C (dose: 100.0 mg/kg/injection, schedule: Q01DX009 (ip), vehicle: Klucel (hydroxypropylcellulose) (HPC)): 100 % of control
T/C (dose: 200.0 mg/kg/injection, schedule: Q01DX009 (ip), vehicle: Klucel (hydroxypropylcellulose) (HPC)): 96 % of control
T/C (dose: 400.0 mg/kg/injection, schedule: Q01DX009 (ip), vehicle: Klucel (hydroxypropylcellulose) (HPC)): 104 % of control
